Measured values: patent publication US10125139B2, “Pesticidally active polycyclic derivatives with sulfur substituted five-membered ring heterocycles” (Syngenta Participations AG, priority 2015, dated 2018)

Tests used:
Assay type in all cases: in vivo
[1] = test system: Diabrotica balteata (Corn Root Worm); assay: Example B2: Diabrotica balteata, sprayed maize sprouts, L2 larvae; details: Diabrotica balteata, 96 h; application rate of 200 ppm; 4 days after infestation; L2 larvae; read-out: effect in at least one of the two categories (mortality or growth inhibition)
Protocol: Example B2: Diabrotica balteata (Corn Root Worm)
Maize sprouts placed onto an agar layer in 24-well microtiter plates were treated with aqueous test solutions prepared from 10,000 ppm DMSO stock solutions by spraying. After drying, the plates were infested with L2 larvae (6 to 10 per well). The samples were assessed for mortality and growth inhibition in comparison to untreated samples 4 days after infestation. The following compounds gave an effect of at least 80% in at least one of the two categories (mortality or growth inhibition) at an application rate of 200 ppm:
(§1) Insecticidal action against Diabrotica balteata (Corn root worm), Plutella xylostella (Diamond black moth), and Spodoptera littoralis (Egyptian cotton leaf worm). The tests were carried out as described in biological examples B2, B8 and B9, respectively, with the larval feeding/contact activity (mortality only) being reported as Breakpoint (BP80) values in parts per million (i.e. the lowest concentration which gives 80% larval mortality).

[2] = test system: Euschistus heros (Neotropical Brown Stink Bug); assay: Example B3: Euschistus heros, sprayed soybean leaves, N2 nymphs; details: 120 h, application rate of 200 ppm, 5 days after infestation, read-out: effect in at least one of the two categories (mortality or growth inhibition)
Protocol: Example B3: Euschistus heros (Neotropical Brown Stink Bug)
Soybean leaves on agar in 24-well microtiter plates were sprayed with aqueous test solutions prepared from 10,000 ppm DMSO stock solutions. After drying the leaves were infested with N2 nymphs. The samples were assessed for mortality and growth inhibition in comparison to untreated samples 5 days after infestation. The following compounds gave an effect of at least 80% in at least one of the two categories (mortality or growth inhibition) at an application rate of 200 ppm: […]

[3] = test system: Myzus persicae (Green Peach Aphid); assay: Example B5: Myzus persicae feeding/contact activity, sunflower leaf discs; details: foliar, 144 h, application rate of 200 ppm, 6 days after infestation
Protocol: Example B5: Myzus persicae (Green Peach Aphid): Feeding/Contact Activity
Sunflower leaf discs were placed onto agar in a 24-well microtiter plate and sprayed with aqueous test solutions prepared from 10,000 ppm DMSO stock solutions. After drying, the leaf discs were infested with an aphid population of mixed ages. The samples were assessed for mortality 6 days after infestation.

[4] = test system: Myzus persicae (Green Peach Aphid); assay: Example B7: Myzus persicae intrinsic activity, sucrose solution through Parafilm; details: 120 h, test rate of 12 ppm, 5 days after infestation
Excerpt: Example B7: Myzus persicae (Green Peach Aphid). Intrinsic Activity
Test compounds prepared from 10,000 ppm DMSO stock solutions were applied by pipette into 24-well microtiter plates and mixed with sucrose solution. The plates were closed with a stretched Parafilm. A plastic stencil with 24 holes was placed onto the plate and infested pea seedlings were placed directly on the Parafilm. The infested plate was closed with a gel blotting paper and another plastic stencil and then turned upside down. The samples were assessed for mortality 5 days after infestation.

[5] = test system: Plutella xylostella (Diamond Back Moth); assay: Example B8: Plutella xylostella, artificial diet, L2 larvae; details: Plutella xylostella, 120 h; application rate of 200 ppm; 5 days after infestation; L2 larvae; read-out: effect in at least one of the two categories (mortality or growth inhibition)
Protocol: Example B8: Plutella xylostella (Diamond Back Moth)
24-well microtiter plates with artificial diet were treated with aqueous test solutions prepared from 10,000 ppm DMSO stock solutions by pipetting. After drying, the plates were infested with L2 larvae (10 to 15 per well). The samples were assessed for mortality and growth inhibition in comparison to untreated samples 5 days after infestation. The following compounds gave an effect of at least 80% in at least one of the two categories (mortality or growth inhibition) at an application rate of 200 ppm:
as §1

[6] = test system: Spodoptera littoralis (Egyptian Cotton Leaf Worm); assay: Example B10: Spodoptera littoralis systemic activity, lettuce grown on treated agar; details: 144 h, test rate of 12.5 ppm, 6 days after infestation, read-out: effect in at least one of the three categories (mortality, anti-feeding, or growth inhibition)
Excerpt: Example B10: Spodoptera littoralis (Egyptian Cotton Leaf Worm) Systemic Activity
Test compounds were applied by pipette from 10,000 ppm DMSO stock solutions into 24-well plates and mixed with agar. Lettuce seeds were placed onto the agar and the multi well plate was closed by another plate which contained also agar. After 7 days the compound was absorbed by the roots and the lettuce grew into the lid plate. The lettuce leaves were then cut off into the lid plate. Spodoptera eggs were pipetted through a plastic stencil onto a humid gel blotting paper and the lid plate was closed with it. The samples were assessed for mortality, anti-feedant effect and growth inhibition in comparison to untreated samples 6 days after infestation. The following compounds gave an effect of at least 80% in at least one of the three categories (mortality, anti-feeding, or growth inhibition) at a test rate of 12.5 ppm: […]

[7] = test system: Myzus persicae (Green Peach Aphid); assay: Example B6: Myzus persicae systemic activity, pea seedling roots in test solution; details: 144 h, test rate of 24 ppm, 6 days after placing seedlings into test solutions
Protocol: Example B6: Myzus persicae (Green Peach Aphid). Systemic Activity
Roots of pea seedlings infested with an aphid population of mixed ages were placed directly into aqueous test solutions prepared from 10,000 DMSO stock solutions. The samples were assessed for mortality 6 days after placing seedlings into test solutions.

[8] = test system: Spodoptera littoralis (Egyptian Cotton Leaf Worm); assay: Example B9: Spodoptera littoralis, cotton leaf discs, L1 larvae; details: Spodoptera littoralis, foliar, 72 h; application rate of 200 ppm; 3 days after infestation; L1 larvae
Protocol: Example B9: Spodoptera littoralis (Egyptian Cotton Leaf Worm)
Cotton leaf discs were placed onto agar in 24-well microtiter plates and sprayed with aqueous test solutions prepared from 10,000 ppm DMSO stock solutions. After drying the leaf discs were infested with five L1 larvae. The samples were assessed for mortality, anti-feeding effect, and growth inhibition in comparison to untreated samples 3 days after infestation. Control of Spodoptera littoralis by a test sample is given when at least one of the categories mortality, anti-feedant effect, and growth inhibition is higher than the untreated sample.
as §1

[9] = test system: Frankliniella occidentalis (Western Flower thrips); assay: Example B4: Frankliniella occidentalis feeding/contact activity, sunflower leaf discs; details: foliar, 168 h, application rate of 200 ppm, 7 days after infestation, population of mixed ages
Protocol: Example B4: Frankliniella occidentalis (Western Flower thrips): Feeding/Contact Activity
Sunflower leaf discs were placed on agar in 24-well microtiter plates and sprayed with aqueous test solutions prepared from 10,000 DMSO stock solutions. After drying the leaf discs were infested with a Frankliniella population of mixed ages. The samples were assessed for mortality 7 days after infestation.

[10] = test system: Tetranychus urticae (Two-Spotted Spider Mite); assay: Example B11: Tetranychus urticae feeding/contact activity, bean leaf discs; details: foliar, 192 h
Protocol: Example B11: Tetranychus urticae (Two-Spotted Spider Mite): Feeding/Contact Activity
Bean leaf discs on agar in 24-well microtiter plates were sprayed with aqueous test solutions prepared from 10,000 ppm DMSO stock solutions. After drying the leaf discs were infested with a mite population of mixed ages. The samples were assessed for mortality on mixed population (mobile stages) 8 days after infestation.

[11] = test system: Bemisia tabaci (Cotton White Fly); assay: Example B1: Bemisia tabaci feeding/contact activity, cotton leaf discs; details: foliar, 144 h, application rate of 200 ppm, 6 days after incubation, adult white flies
Protocol: Example B1: Bemisia tabaci (Cotton White Fly): Feeding/Contact Activity
Cotton leaf discs were placed on agar in 24-well microtiter plates and sprayed with aqueous test solutions prepared from 10,000 ppm DMSO stock solutions. After drying the leaf discs were infested with adult white flies. The samples were checked for mortality 6 days after incubation.

CCSc1cc(I)sc1-c1nc2cc(SC(F)(F)F)ncc2n1C [Example I-7, 2-(3-ethylsulfanyl-5-iodo-2-thienyl)-3-methyl-6-(trifluoromethylsulfanyl)imidazo[4,5-c]pyridine]
≥ 80%: percent effect (mortality or growth inhibition) at 200 ppm [1] | percent effect (mortality or growth inhibition) at 200 ppm [2] | mortality at 200 ppm [3] | mortality at 12 ppm [4] | percent effect (mortality or growth inhibition) at 200 ppm [5] | percent effect (mortality, anti-feeding or growth inhibition) at 12.5 ppm [6]

CCS(=O)(=O)c1nc(C2CC2)sc1-c1nc2cc(C(F)(F)F)ncc2n1C [Example P-13, 2-cyclopropyl-4-ethylsulfonyl-5-[3-methyl-6-(trifluoromethyl)imidazo[4,5-c]pyridin-2-yl]thiazole]
≥ 80%: percent effect (mortality or growth inhibition) at 200 ppm [1] | mortality at 200 ppm [3] | mortality at 24 ppm [7] | percent effect (mortality or growth inhibition) at 200 ppm [5] | percent control (mortality, anti-feedant effect or growth inhibition) at 200 ppm [8] | percent effect (mortality, anti-feeding or growth inhibition) at 12.5 ppm [6]

CCSc1cc(-c2ccc(Cl)cc2)sc1-c1nc2cc(C(F)(F)F)ncc2n1C [Example P-6, 2-[5-(4-chlorophenyl)-3-ethylsulfanyl-2-thienyl]-3-methyl-6-(trifluoromethyl)imidazo[4,5-c]pyridine]
≥ 80%: percent effect (mortality or growth inhibition) at 200 ppm [1] | percent effect (mortality or growth inhibition) at 200 ppm [2] | mortality at 200 ppm [9] | percent effect (mortality or growth inhibition) at 200 ppm [5] | percent control (mortality, anti-feedant effect or growth inhibition) at 200 ppm [8] | mortality at 200 ppm [10]

CCS(=O)(=O)c1cc(I)sc1-c1nc2cc(C(F)(F)F)ncc2n1C [Example I-1, 2-(3-ethylsulfonyl-5-iodo-2-thienyl)-3-methyl-6-(trifluoromethyl)imidazo[4,5-c]pyridine]
≥ 80%: percent effect (mortality or growth inhibition) at 200 ppm [1] | mortality at 200 ppm [3] | percent effect (mortality or growth inhibition) at 200 ppm [5] | percent control (mortality, anti-feedant effect or growth inhibition) at 200 ppm [8] | percent effect (mortality, anti-feeding or growth inhibition) at 12.5 ppm [6] | mortality at 200 ppm [10]

CCSc1nc(C2CC2)sc1-c1nc2cc(C(F)(F)F)ncc2n1C [Example P-14, 2-cyclopropyl-4-ethylsulfanyl-5-[3-methyl-6-(trifluoromethyl)imidazo[4,5-c]pyridin-2-yl]thiazole]
≥ 80%: mortality at 200 ppm [11] | percent effect (mortality or growth inhibition) at 200 ppm [1] | mortality at 200 ppm [3] | mortality at 12 ppm [4] | percent effect (mortality or growth inhibition) at 200 ppm [5] | percent control (mortality, anti-feedant effect or growth inhibition) at 200 ppm [8]
